Measurements: patent US8119660B2, “Small-molecule inhibitors of the androgen receptor” (The Regents of the University of California, priority 2007, dated 2012)
Where a name gives a salt, the structure may show the parent alone.

Test system: endogenous AR-regulated gene expression, LAPC4 cells
Assay: qRT-PCR of androgen-responsive genes in LAPC4 cells
Type: cell-based, human
Conditions: No DHT = 1, 3 nM DHT alone or with 1 uM BIC, 100 nM PP or 100 nM HH
Procedure: LAPC4 and LNCaP cells were grown in the presence or absence of 3 nM DHT in charcoal-stripped media, with or without the inhibitors. RNA was harvested using an RNAeasy kit (Qiagen) and reverse transcribed (MMLV-RT, Invitrogen). Real-time PCR was carried out on a 7300 Real Time PCR System (Applied Biosystems) using SYBR green as the detecting dye and Rox as the reference dye. The androgen responsive genes kalikrein 3, or PSA (KLK3) [Cleutjens, K. B., et al., Two androgen response regions cooperate in steroid hormone regulated activity of the prostate-specific antigen promoter. J Biol Chem, 1996. 271(11): p. 6379-88; Nelson, P. S., et al., The program of androgen-responsive genes in neoplastic prostate epithelium. Proc Natl Acad Sci USA, 2002. 99(18): p. 11890-5), metalloproteinase 16 (MMP16) (Nelson, P. S., et al., The program of androgen-responsive genes in neoplastic prostate epithelium. Proc Natl Acad Sci USA, 2002. 99(18): p. 11890-5), transmembrane protease serine 2 (TMPRSS2) (Nelson, P. S., et al., The program of androgen-responsive genes in neoplastic prostate epithelium. Proc Natl Acad Sci USA, 2002. 99(18): p. 11890-5; […] Vaarala, M. H., et al., Expression of transmembrane serine protease TMPRSS2 in mouse and human tissues. J Pathol, 2001. 193(1): p. 134-40), FK506-binding immunophilin 51 (FKBP51) (Nelson, P. S., et al., The program of androgen-responsive genes in neoplastic prostate epithelium. Proc Natl Acad Sci USA, 2002. 99(18): p. 11890-5; Amler, L. C., et al., Dysregulated expression of androgen-responsive and nonresponsive genes in the androgen-independent prostate cancer xenograft model CWR22-R1. Cancer Res, 2000. 60(21): p. 6134-41; Velasco, A. M., et al., Identification and validation of novel androgen-regulated genes in prostate cancer. Endocrinology, 2004. 145(8): p. 3913-24; Magee, J. A., et al., Direct, androgen receptor-mediated regulation of the FKBP5 gene via a distal enhancer element. Endocrinology, 2006. 147(1): p. 590-8), G-protein coupled receptor RDC1 homolog, or chemokine orphan receptor 1 (RDC-1) (Nelson, P. S., et al., The program of androgen-responsive genes in neoplastic prostate epithelium. Proc Natl Acad Sci USA, 2002. 99(18): p. 11890-5), NK homeobox family member 3 (Nk×3.1) (Nelson, P. S., et al., The program of androgen-responsive genes in neoplastic prostate epithelium. Proc Natl Acad Sci USA, 2002. 99(18): p. 11890-5; Bieberich, C. J., et al., Prostate-specific and androgen-dependent expression of a novel homeobox gene. J Biol Chem, 1996. 271(50): p. 31779-82; […]) were all normalized to the transcription of the housekeeping ribosomal gene (RPL19). All samples were done in triplicate and separately normalized.

`Cc1nccc2c1[nH]c1cc(O)ccc12` [HH, harmol hydrochloride] was tested, and the “FKBP51 transcription (normalized to RPL19)” value was 11.96, the “KLK3 transcription (normalized to RPL19)” value was 1.64 and the “MMP16 transcription (normalized to RPL19), androgen-repressed gene” value was 4.74. The “Nkx3.1 transcription (normalized to RPL19)” value was 1.55, the “RDC1 transcription (normalized to RPL19), androgen-repressed gene” value was 2.88 and the “TMPRSS2 transcription (normalized to RPL19)” value was 1.86.
